Where a name gives a salt, the structure may show the parent alone. Read-outs that look alike come from different tables or passages of the source.
Experiments:
[1] = Phase solubility of amiodarone with substituted cyclodextrins; conditions: 5% dextrose, 0.9 mM citrate buffer, pH 3.8, room temperature (FIG. 4)
From the text: The actual percent of drug that is complexed will vary according to the complexation equilibrium constant characterizing the complexation of a specific cyclodextrin derivative to a specific drug and to the concentrations of the cyclodextrin derivative and drug available for complexation.
Phase solubility studies can also generate information as to the required amounts of a cyclodextrin needed to solubilize a drug under different conditions such as temperature, cyclodextrin type, or solution composition.

[2] = Ravin et al. 1975, cited from earlier work
[3] = cited from earlier work

In the case of `CCCCc1oc2ccccc2c1C(=O)c1cc(I)c(OCCN(CC)CC)c(I)c1` [amiodarone hydrochloride], the “SBE7-β-CD required for 1.8 mg/mL amiodarone hydrochloride” value [1] is reported as “about 6 mg/mL”.

In the case of `CCCCc1oc2ccccc2c1C(=O)c1cc(I)c(OCCN(CC)CC)c(I)c1` [amiodarone], the Amiodarone concentration achievable ([2]; 25 °C) is listed as 0.35 mg/mL, the Amiodarone concentration achievable ([2]; 40 °C) is listed as 0.95 mg/mL and the Amiodarone concentration achievable ([2]; about 60 °C) is listed as > 13 mg/mL. For the same compound, the “Critical micellar concentration (CMC)” value ([3]; Ravin et al. 1975) was “approximately 0.5 mg/mL” and the “Critical micellar concentration (CMC)” value ([3]; at Krafft point of ~70 °C, Benedini et al. 2010) was 1.69 mg/mL.
